Where two headings read alike, the source gives them in different places.
How the values were obtained:
[1] = test system: NZOV11 human ovarian cell line; experiment: restoration of p53 function: G1-phase arrest after irradiation plus paclitaxel, flow cytometry; assay type: cell-based; details: 9 Gray plus 200 nM paclitaxel, 24 hours; for AC50: NZOV11, p53 mutated at position 248, G1 proportion restored to (a+b)/2, read-out: AC-50% (concentration of drug that restores the G1-phase proportion of the cultured cells); for Activity: NZOV11, p53 mutated at position 248 (arginine to glutamine)
Text: Description of the in vitro assay: This protocol employs a novel assay that was used to measure the restoration of one of the principal p53 functions, that of regulating entry into S-phase (DNA replication) of the cell division cycle. Without being bound to any specific understanding, it is thought that these compounds may act to restore the known ability of p53 to induce cell cycle arrest in the G1-phase of the cell division cycle through induction of the p21^WAF1 protein in response to DNA damage (Levine. Cell 1997, 88, 323-31). Logarithmic phase cultures of tumour cell lines are irradiated in the presence of an inhibitor of cell division (to prevent the generation of G1-phase cells by cell division), and then allowed to grow for approximately one cell division time. If p53 function is present it will inhibit the progression of cells from the G1-phase to the S-phase of the cell division cycle, as a consequence of induction of the p21^WAF1 protein. If p53 function is absent there will be little or no cells in the G1-phase of the cell division cycle at the end of the incubation. […] The ability of an individual drug to restore p53 function is therefore evaluated against a positive control of non-irradiated cells and a negative control of cells that have been treated with a combination of radiation and a mitotic inhibitor.
Logarithmic phase cultures of tumour cell lines are plated in insulin-transferrin-selenite growth medium on 100 mm plates (10 ml) at a density of 10^4 cells/ml, using the standard cell culture conditions that are established in this laboratory (Marshall et al., Oncol Res 1994, 5, 301-9). The test compound is added to some cultures at a range of concentrations up to 20 μM. The anticancer drug paclitaxel is used as an inhibitor of cell division and is added to some cultures at a concentration of 200 nM. Cultures are irradiated where indicated at a dose of 9 Gray. Following irradiation, cultures are incubated at 37° C. for 24 hours, the cells harvested, washed once and fixed overnight in 100% methanol at −20° C. at a density of 5×10^5 cells/ml. Cells are rehydrated by washing in phosphate buffered saline with 2% foetal bovine serum, then incubated with RNAase A (0.25 mg/ml) at 37° C. for 30 min. Cells are then washed and resuspended in phosphate buffered saline containing 0.1 mM EDTA and 25 μg/ml propidium iodide. Cycle analysis (red fluorescence) is performed using a Becton Dickinson (Mountain View, Calif.) FACScan flow cytometer. Cellular DNA content profiles are analyzed using Modfit software (Verity Software House, Inc.) to provide estimates of the proportions of G1-, S- and G2/M-phase cells, and of other cellular material. By comparing the effects of irradiation and addition of paclitaxel separately, the assay provides evidence of non-specific inhibition of cell growth from changes in cell number, cell cycle distribution, and production of cellular debris.
Using cell cultures that have been both irradiated and treated with paclitaxel, the proportion of cells in G1-phase is plotted against the concentration of added test compound. Depending on the cell line, the proportion of G1-phase cells in the absence of added compound is generally less than 5% (defined as a). […] The 50%-activating concentration (AC-50%) of the test compound is defined as the concentration that restores the G1-phase proportion of the cultured cells to a value of (a+b)/2.
The NZOV11 human ovarian cell line, previously developed in this laboratory according to methods that have previously been published (Baguley B C et al., Eur J Cancer 1998, 34, 1086), was used in these studies to compare the activity of each of the drugs.

[2] = test system: A375.S2 melanoma (mutated at p53 position 249); details: A375.S2 melanoma cells in nude mice; cited from earlier work
[3] = test system: Saos-2 osteosarcoma cells; details: cited from earlier work
[4] = test system: DLD-1 colon carcinoma (mutated at p53 position 241); details: DLD-1 colon carcinoma cells in nude mice; cited from earlier work
[5] = background statement; cited from earlier work
[6] = test system: NZM4 human tumour xenografts; experiment: growth of NZM4 human tumour xenografts in immunodeficient (rag 1) mice; assay type: in vivo
Method: Illustrates the growth curves for immunodeficient mice with NZM4 human tumour xenografts. Mice were either untreated (closed circles), treated with 2 Gray radiation alone (open circles) or treated with radiation combined with compound 3 (100 mg/kg per dose).
In vivo estimation of ability to restore p53 function: A further consideration in this project is to determine whether members of this series have the ability to inhibit the growth of human cell lines that contain mutant p53 protein. This consideration was addressed with the use of compound 3, for which in vitro evidence has been obtained for ability to restore p53 function (Table 2) and for which pharmacological evidence has been obtained for biologically relevant plasma concentrations in vivo in the absence of significant side-effects (FIG. 1). Immunodeficient (rag 1) mice were maintained under standard conditions in accordance with institutional ethical guidelines. Cells from the NZM4 cell line (Marshall E S et al., Eur J Cancer 1994; 30A: 1370-1376) were grown in culture and harvested. Mice were injected subcutaneously with 10^7 cells and tumours allowed to grow to a diameter of approximately 5 mm. Mice received whole-body irradiation of 2 Gray and were then administered compound 3 by intraperitoneal injection immediately after, and 1 and 2 days following, irradiation. […] Control animals received no treatment or were irradiated in the absence of drug administration.
Tumour growth was recorded three times weekly by measuring the minor and major dimensions of the tumour and tumour volumes were calculated as 0.52 times (minor dimension)^2 times (major dimension). Tumour volumes were normalized to the initial volume and plotted versus time. FIG. 2 illustrates the growth curves for immunodeficient mice with NZM4 human tumour xenografts. Mice were either untreated (closed circles), treated with 2 Gray radiation alone (open circles) or treated with radiation combined with compound 3 (100 mg/kg per dose). […]

[7] = plasma concentrations after a single intraperitoneal dose; assay type: in vivo; details: C57Bl mice, single intraperitoneal 100 mg/kg, 1, 2 and 4 hours, FIG. 1
Method: Illustrates the in vivo plasma concentrations of compound 3 over time following a single intraperitoneal administration (100 mg/kg) to C57Bl mice.
(§1) Pharmacological studies in mice: A further consideration in this project is whether effective plasma concentrations can be achieved in vivo without significant side-effects. C57Bl mice were maintained under standard conditions in accordance with institutional ethical guidelines. The maximum tolerated intraperitoneal single dose of compound 3 was determined by administering different doses of drug to mice and found to be 100 mg/kg. […] An effective analytical procedure for the determination of concentrations of 3 in mouse plasma was developed, using high performance liquid chromatography and detection by ion trap mass spectrometry. The method is broadly applicable to compounds in the series. Blood samples were obtained under terminal anesthesia either before or at 1, 2 and 4 hours after a single intraperitoneal dose of 100 mg/kg. Plasma was prepared and analyzed using the method developed above.

[8] = test system: other cell lines with mutations in other parts of the p53 protein; experiment: restoration of p53 function in other cell lines with other p53 mutations; assay type: cell-based; details: a number of other cell lines with mutations in other parts of the p53 protein
C57Bl mice = experiment: maximum tolerated intraperitoneal single dose and signs of toxicity in mice; assay type: in vivo
Method: as §1

Row | SMILES | AC50 ([1]; Homo sapiens) [µM] | Activity [1] | other results
1 | Cc1cccc2c(NCCCN(C)C)nc(-c3cc4ccccc4o3)nc12.Cl.Cl [Compound 45, N^1-[2-(1-Benzofuran-2-yl)-8-methyl-4-quinazolinyl]-N^3,N^3-dimethyl-1,3-propanediamine dihydrochloride] | 5.8 | Active | 
2 | CN(C)CCCNc1cc(-c2cc3ccccc3o2)nc2ccccc12.Cl.Cl [Compound 80, N^1-[2-(1-benzofuran-2-yl)-4-quinolinyl]-N^3,N^3-dimethyl-1,3-propanediamine dihydrochloride] | 15 | Active | 
3 | CN(C)CCCNc1nc(-c2cc3ccccc3o2)nc2ccc(N)cc12.Cl.Cl [Compound 30] |  | Active | 
4 | CN(C)CCCNc1nc(-c2cc3ccccc3o2)nc2ccc([N+](=O)[O-])cc12 [Compound 29, N^1-[2-(1-Benzofuran-2-yl)-6-nitro-4-quinazolinyl]-N^3,N^3-dimethyl-1,3-propanediamine] | 12 | Active | 
5 | Cc1ccc2c(NCCC3CCCN3C)nc(-c3cc4ccccc4o3)nc2c1C.Cl.Cl (centres unmarked) [Compound 79, 2-(1-Benzofuran-2-yl)-7,8-dimethyl-N-[2-(1-methyl-2-pyrrolidinyl)ethyl]-4-quinazolinamine dihydrochloride] | 7.5 | Active | 
6 | Cc1ccc2c(N(C)CCC(C)N)nc(-c3cc4ccccc4o3)nc2c1C.Cl.Cl (centres unmarked) [Compound 58, N^1-[2-(1-Benzofuran-2-yl)-7,8-dimethyl-4-quinazolinyl]-3,N-dimethyl-1,3-propanediamine dihydrochloride] | 2.7 | Active | 
7 | CN(C)CCCNc1nc(-c2cc3ccccc3o2)nc2ccc(N)cc12.Cl.Cl [Compound 30, N^1-[2-(1-Benzofuran-2-yl)-N^4-[3-(dimethylamino)propyl]-4,6-quinazolinediaminedihydrochloride] |  |  | AC50 [1]: 9.5 µM
8 | CN(C)CCCNc1nc(-c2cc3ccccc3o2)nc2cc(C(F)(F)F)ccc12.Cl.Cl [Compound 35, N^1-[2-(1-Benzofuran-2-yl)-7-(trifluoromethyl)-4-quinazolinyl]-N^3,N^3-dimethyl-1,3-propanediamine dihydrochloride] | 3.4 | Active | 
9 | COc1ccc(/C=C/c2nc(NCCCN(C)C)c3ccccc3n2)cc1 [(i)] |  |  | suppression of tumour growth [2]: able to suppress the growth; ability of mutant p53 protein to induce the cellular p21 gene ([3]; Saos-2 osteosarcoma cells): restored the ability of mutant p53 protein to induce the cellular p21 gene; potency ([3]; background statement, no test named): not very potent; suppression of tumour growth [4]: able to suppress the growth; chemical stability [5]: chemically unstable
10 | Cc1c(-c2nc(NCCCN(C)C)c3ccccc3n2)oc2ccccc12.Cl.Cl [Compound 60, N^1,N^1-Dimethyl-N^3-[2-(3-methyl-1-benzofuran-2-yl)-4-quinazolinyl]-1,3-propanediamine dihydrochloride] | 18 | Active | 
11 | CN(C)CCCNc1nc(-c2cc3ccccc3o2)nc2ccccc12.Cl.Cl [Compound 3, N^1-[2-(1-benzofuran-2-yl)-4-quinazolinyl]-N^3,N^3-dimethyl-1,3-propanediamine dihydrochloride] | 8.5 | Active | time to reach three times the initial tumour volume ([6]; 2 Gray radiation together with compound, 100 mg/kg per dose intraperitoneal on days 0, 1 and 2 after irradiation): 17 days; signs of toxicity ([6]; rag 1 mice, 2 Gray whole-body irradiation plus intraperitoneal compound immediately after and 1 and 2 days after): No signs of toxicity; tumour growth rate with drug alone compared with mice not treated with drug ([6]; rag1 mice, drug alone at the same schedule, no irradiation): identical rate; achieved plasma concentrations [7]: comparable to the AC-50% value; ability to restore p53 function [8]: able to restore p53 function; maximum tolerated intraperitoneal single dose (C57Bl mice; single intraperitoneal dose): 100 mg/kg; signs of toxicity (weight loss, ruffling of fur, behavioral changes) (C57Bl mice; single intraperitoneal dose of 100 mg/kg): No signs of toxicity
12 | CN(C)CCCNc1nc(-c2cc3ccccc3s2)nc2ccccc12.Cl.Cl [Compound 75, N^1-[2-(1-Benzothien-2-yl)-4-quinazolinyl]-N^3,N^3-dimethyl-1,3-propanediamine dihydrochloride] | 8 | Active | 
